Measurements reported in patent US20260272924A1, “ISOINDOLINE DERIVATIVE, BENZOINDOLE DERIVATIVE AND USE THEREOF” (SHANGHAI HELIOSON PHARMACEUTICAL CO., LTD., priority 2023, published 2026).

test system: NCI-H929 multiple myeloma cells; experiment: Cell Titer-GLO (CTG) assay for proliferation of NCI-H929 cells; type: cell-based; details: Homo sapiens, 72 hours
Procedure, shortened: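 NCI-H929 cells, 5000/well, treated next day with compound from 0.00512 to 400 nM (5-fold steps, duplicates) for 72 h at 37° C. Viability by CellTiter-Glo luminescence, normalised to 0.1% DMSO and medium blank; IC50 and maximal inhibition from nonlinear dose-response regression.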

Question: `Cc1nc(N2CCN(C3CN(Cc4ccc(Cc5ccc6c7c(cccc57)C(=O)N6C5CCC(=O)NC5=O)cc4)C3)CC2)cc(-n2cnc(C)n2)n1` (stereo not shown) [Example 48, 3-(6-(4-((3-(4-(2-methyl-6-(3-methyl-1H-1,2,4-triazol-1-yl)pyrimidin-4-yl)piperazin-1-yl)azetidin-1-yl)methyl)benzyl)-2-oxobenzo[cd]indol-1(2H)-yl)piperidin-2,6-dione] was tested. Which IC50 did it give?
Answer: 0.002 nM

Question: Which IC50 does the source give for `O=C1CCC(N2C(=O)c3cccc4c(Cc5ccc(CN6CCC(NC(=O)c7ccnc(-n8ccnc8)n7)CC6)cc5)ccc2c34)C(=O)N1` (stereo not shown) [Example 7, N-(1-(4-((1-(2,6-dioxopiperidin-3-yl)-2-oxo-1,2-dihydrobenzo[cd]indol-6-yl)methyl)benzyl)piperidin-4-yl)-2-(1H-imidazol-1-yl)pyrimidin-4-carboxamide] here?
Answer: 0.05 nM

Question: With `O=C1CC[C@H](N2C(=O)c3cccc4c(Cc5ccc(CN6CCN(c7ccnc(-n8cnc(C(F)(F)F)c8)n7)CC6)cc5)ccc2c34)C(=O)N1` [Example 33, (S)-3-(2-oxo-6-(4-((4-(2-(4-(trifluoromethyl)-1H-imidazol-1-yl)pyrimidin-4-yl)piperazin-1-yl)methyl)benzyl)benzo[cd]indol-1(2H)-yl)piperidin-2,6-dione] as the molecule, how does the IC50 read?
Answer: 0.02 nM

Question: For `Cc1nnc(-c2ncc(F)c(N3CCN(Cc4ccc(Cc5ccc6c7c(cccc57)C(=O)N6C5CCC(=O)NC5=O)cc4)CC3)n2)s1` (stereo not shown) [Example 42, 3-(6-(4-((4-(5-fluoro-2-(5-methyl-1,3,4-thiadiazol-2-yl)pyrimidin-4-yl)piperazin-1-yl)methyl)benzyl)-2-oxobenzo[cd]indol-1(2H)-yl)piperidin-2,6-dione], which IC50 is on record?
Answer: 0.01 nM

Question: `Cc1nnc(-c2cccc(N3CCN(Cc4ccc(Cc5ccc6c7c(cccc57)C(=O)N6[C@H]5CCC(=O)NC5=O)cc4)CC3)n2)s1` [Example 35, (S)-3-(6-(4-((4-(6-(5-methyl-1,3,4-thiadiazol-2-yl)pyridin-2-yl)piperazin-1-yl)methyl)benzyl)-2-oxobenzo[cd]indol-1(2H)-yl)piperidin-2,6-dione] was tested. Which IC50 did it give?
Answer: 0.01 nM

Question: For `O=C1CCC(N2C(=O)c3cccc4c(Cc5ccc(CN6CCN(c7ccnc(-n8cnc(C(F)(F)F)n8)n7)CC6)cc5)ccc2c34)C(=O)N1` (stereo not shown) [Example 39, 3-(2-oxo-6-(4-((4-(2-(3-(trifluoromethyl)-1H-1,2,4-triazol-1-yl)pyrimidin-4-yl)piperazin-1-yl)methyl)benzyl)benzo[cd]indol-1(2H)-yl)piperidin-2,6-dione], which IC50 is on record?
Answer: 0.01 nM

Question: For `O=C1CCC(N2C(=O)c3cccc4c(Cc5ccc(CN6CC(N7CCN(c8cccc(-n9ccnc9)n8)CC7)C6)cc5)ccc2c34)C(=O)N1` (stereo not shown) [Example 32], which IC50 is on record?
Answer: < 0.005 nM

Question: For `O=C1CC[C@H](N2Cc3c(OCc4ccc(CN5CCN(c6cccc(-c7cncs7)n6)CC5)cc4)cccc3C2=O)C(=O)N1` [Example 19, (S)-3-(1-oxo-4-((4-((4-(6-(thiazol-5-yl)pyridin-2-yl)piperazin-1-yl)methyl)benzyl)oxy)isoindolin-2-yl)piperidin-2,6-dione], which IC50 is on record?
Answer: 0.3 nM

Question: How did the IC50 turn out when `Cc1ncn(-c2nc(N3CCN(C4CN(Cc5ccc(Cc6ccc7c8c(cccc68)C(=O)N7C6CCC(=O)NC6=O)cc5)C4)CC3)cc(C(F)(F)F)n2)n1` (stereo not shown) [Example 52, 3-(6-(4-((3-(4-(2-(3-methyl-1H-1,2,4-triazol-1-yl)-6-(trifluoromethyl)pyrimidin-4-yl)piperazin-1-yl)azetidin-1-yl)methyl)benzyl)-2-oxobenzo[cd]indol-1(2H)-yl)piperidin-2,6-dione] was run?
Answer: 0.01 nM

Question: With `CC(C)n1cnnc1-c1cccc(N2CCN(Cc3ccc(Cc4ccc5c6c(cccc46)C(=O)N5C4CCC(=O)NC4=O)cc3)CC2)n1` (stereo not shown) [Example 24, 3-(6-(4-((4-(6-(4-isopropyl-4H-1,2,4-triazol-3-yl)pyridin-2-yl)piperazin-1-yl)methyl)benzyl)-2-oxobenzo[cd]indol-1(2H)-yl)piperidin-2,6-dione] as the molecule, how does the IC50 read?
Answer: 0.1 nM
